Values quoted from earlier work, collected in patent US20170143768A1, “OINTMENT FOR THE TREATMENT OF HEMORRHOIDAL DISEASE” (Global Treat SRL, priority 2014, published 2017).

In the case of CC12CCC(CC1=O)C2(C)C (stereo not shown) [camphor], the solubility in water is listed as “water-soluble”.
